Assay results reported in ChEMBL document CHEMBL4482311, “Modulators of Prostate-Specific G-Protein Receptor (PSGR/OR51E2) and Methods of Using Same” (2018).
The source made the active and inactive calls.

Experiments:
Assay type in all cases: cell-based
[1] = molecular target: T1, Olfactory receptor 51E2 (Homo sapiens) (UniProt Q9H255); assay: Agonist activity at PSGR/OR51E2 in human LNCaP cells assessed as induction of change in extracellular metabolites level by measuring phenylalanine level at 250 uM incubated for 72 hrs by GC/MS analysis
T1 sequence (whole entry): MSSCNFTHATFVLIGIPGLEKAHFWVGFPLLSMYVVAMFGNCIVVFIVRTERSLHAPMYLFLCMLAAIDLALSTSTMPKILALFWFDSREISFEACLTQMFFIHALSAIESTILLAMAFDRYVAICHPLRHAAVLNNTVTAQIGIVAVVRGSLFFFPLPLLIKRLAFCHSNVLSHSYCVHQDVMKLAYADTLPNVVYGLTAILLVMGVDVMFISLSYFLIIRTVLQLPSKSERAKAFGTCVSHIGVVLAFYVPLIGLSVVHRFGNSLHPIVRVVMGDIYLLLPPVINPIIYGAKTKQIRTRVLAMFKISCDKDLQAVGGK

[2] = molecular target: T1, Olfactory receptor 51E2 (Homo sapiens); assay: Agonist activity at PSGR/OR51E2 in human LNCaP cells assessed as induction of change in extracellular metabolites level by measuring serine level at 250 uM incubated for 72 hrs by GC/MS analysis
[3] = molecular target: T1, Olfactory receptor 51E2 (Homo sapiens); assay: Agonist activity at PSGR/OR51E2 in human LNCaP cells assessed as induction of change in extracellular metabolites level by measuring lysine level at 250 uM incubated for 72 hrs by GC/MS analysis
[4] = molecular target: T1, Olfactory receptor 51E2 (Homo sapiens); assay: Agonist activity at PSGR/OR51E2 in human LNCaP cells assessed as induction of change in extracellular metabolites level by measuring glycine level at 250 uM incubated for 72 hrs by GC/MS analysis
[5] = molecular target: T1, Olfactory receptor 51E2 (Homo sapiens); assay: Agonist activity at PSGR/OR51E2 in human LNCaP cells assessed as induction of change in extracellular metabolites level by measuring glutaric acid level at 250 uM incubated for 72 hrs by GC/MS analysis
[6] = molecular target: T1, Olfactory receptor 51E2 (Homo sapiens); assay: Agonist activity at PSGR/OR51E2 in human LNCaP cells assessed as induction of change in extracellular metabolites level by measuring cystine level at 250 uM incubated for 72 hrs by GC/MS analysis
[7] = molecular target: T1, Olfactory receptor 51E2 (Homo sapiens); assay: Agonist activity at PSGR/OR51E2 in human LNCaP cells assessed as induction of change in extracellular metabolites level by measuring uric acid level at 250 uM incubated for 72 hrs by GC/MS analysis
[8] = molecular target: T1, Olfactory receptor 51E2 (Homo sapiens); assay: Agonist activity at PSGR/OR51E2 in human LNCaP cells assessed as induction of change in extracellular metabolites level by measuring tyrosine level at 250 uM incubated for 72 hrs by GC/MS analysis
[9] = molecular target: T1, Olfactory receptor 51E2 (Homo sapiens); assay: Agonist activity at PSGR/OR51E2 in human LNCaP cells assessed as induction of change in extracellular metabolites level by measuring xanthine level at 250 uM incubated for 72 hrs by GC/MS analysis
[10] = molecular target: T1, Olfactory receptor 51E2 (Homo sapiens); assay: Agonist activity at PSGR/OR51E2 in human LNCaP cells assessed as induction of change in extracellular metabolites level by measuring guanine level at 250 uM incubated for 72 hrs by GC/MS analysis
[11] = molecular target: T1, Olfactory receptor 51E2 (Homo sapiens); assay: Agonist activity at PSGR/OR51E2 in human LNCaP cells assessed as induction of change in extracellular metabolites level by measuring glutamine level at 250 uM incubated for 72 hrs by GC/MS analysis
[12] = molecular target: T1, Olfactory receptor 51E2 (Homo sapiens); assay: Agonist activity at PSGR/OR51E2 in human LNCaP cells assessed as induction of change in extracellular metabolites level by measuring asparagine level at 250 uM incubated for 72 hrs by GC/MS analysis
[13] = molecular target: T1, Olfactory receptor 51E2 (Homo sapiens); assay: Agonist activity at PSGR/OR51E2 in human LNCaP cells assessed as induction of change in extracellular metabolites level by measuring threose/erythrose level at 250 uM incubated for 72 hrs by GC/MS analysis
[14] = molecular target: T1, Olfactory receptor 51E2 (Homo sapiens); assay: Agonist activity at PSGR/OR51E2 in human LNCaP cells assessed as induction of change in extracellular metabolites level by measuring alanine level at 250 uM incubated for 72 hrs by GC/MS analysis
[15] = molecular target: T1, Olfactory receptor 51E2 (Homo sapiens); assay: Agonist activity at PSGR/OR51E2 in human LNCaP cells assessed as induction of change in extracellular metabolites level by measuring lactic acid level at 250 uM incubated for 72 hrs by GC/MS analysis
[16] = molecular target: T1, Olfactory receptor 51E2 (Homo sapiens); assay: Agonist activity at PSGR/OR51E2 in human LNCaP cells assessed as induction of change in intracellular metabolites level by measuring pentonic-acids level at 250 uM incubated for 72 hrs by GC/MS analysis
[17] = molecular target: T1, Olfactory receptor 51E2 (Homo sapiens); assay: Agonist activity at PSGR/OR51E2 in human LNCaP cells assessed as induction of change in intracellular metabolites level by measuring spermidine level at 250 uM incubated for 72 hrs by GC/MS analysis
[18] = molecular target: T1, Olfactory receptor 51E2 (Homo sapiens); assay: Agonist activity at PSGR/OR51E2 in human LNCaP cells assessed as induction of change in intracellular metabolites level by measuring malic acid level at 250 uM incubated for 72 hrs by GC/MS analysis
[19] = molecular target: T1, Olfactory receptor 51E2 (Homo sapiens); assay: Agonist activity at PSGR/OR51E2 in human LNCaP cells assessed as induction of change in intracellular metabolites level by measuring serine level at 250 uM incubated for 72 hrs by GC/MS analysis
[20] = molecular target: T1, Olfactory receptor 51E2 (Homo sapiens); assay: Agonist activity at PSGR/OR51E2 in human LNCaP cells assessed as induction of change in intracellular metabolites level by measuring threonine level at 250 uM incubated for 72 hrs by GC/MS analysis
[21] = molecular target: T1, Olfactory receptor 51E2 (Homo sapiens); assay: Agonist activity at PSGR/OR51E2 in human LNCaP cells assessed as induction of change in intracellular metabolites level by measuring ethanolamine level at 250 uM incubated for 72 hrs by GC/MS analysis
[22] = molecular target: T1, Olfactory receptor 51E2 (Homo sapiens); assay: Agonist activity at PSGR/OR51E2 in human LNCaP cells assessed as induction of change in intracellular metabolites level by measuring oleic acid level at 250 uM incubated for 72 hrs by GC/MS analysis
[23] = molecular target: T1, Olfactory receptor 51E2 (Homo sapiens); assay: Agonist activity at PSGR/OR51E2 in human LNCaP cells assessed as induction of change in intracellular metabolites level by measuring inosine level at 250 uM incubated for 72 hrs by GC/MS analysis
[24] = molecular target: T1, Olfactory receptor 51E2 (Homo sapiens); assay: Agonist activity at PSGR/OR51E2 in human LNCaP cells assessed as induction of change in intracellular metabolites level by measuring glucose-6-phosphate level at 250 uM incubated for 72 hrs by GC/MS analysis
[25] = molecular target: T1, Olfactory receptor 51E2 (Homo sapiens); assay: Agonist activity at PSGR/OR51E2 in human LNCaP cells assessed as induction of change in intracellular metabolites level by measuring lactic acid level at 250 uM incubated for 72 hrs by GC/MS analysis
[26] = molecular target: T1, Olfactory receptor 51E2 (Homo sapiens); assay: Agonist activity at PSGR/OR51E2 in human LNCaP cells assessed as induction of change in intracellular metabolites level by measuring ornithine level at 250 uM incubated for 72 hrs by GC/MS analysis
[27] = molecular target: T1, Olfactory receptor 51E2 (Homo sapiens); assay: Agonist activity at PSGR/OR51E2 in human LNCaP cells assessed as induction of change in intracellular metabolites level by measuring beta-alanine level at 250 uM incubated for 72 hrs by GC/MS analysis
[28] = molecular target: T1, Olfactory receptor 51E2 (Homo sapiens); assay: Agonist activity at PSGR/OR51E2 in human LNCaP cells assessed as induction of change in intracellular metabolites level by measuring fumaric acid level at 250 uM incubated for 72 hrs by GC/MS analysis
[29] = molecular target: T1, Olfactory receptor 51E2 (Homo sapiens); assay: Agonist activity at PSGR/OR51E2 in human LNCaP cells assessed as induction of change in intracellular metabolites level by measuring O-methylphosphate level at 250 uM incubated for 72 hrs by GC/MS analysis
[30] = molecular target: T1, Olfactory receptor 51E2 (Homo sapiens); assay: Agonist activity at PSGR/OR51E2 in human LNCaP cells assessed as induction of change in intracellular metabolites level by measuring 3-phosphoglyceric acid level at 250 uM incubated for 72 hrs by GC/MS analysis

Measured: Activity

COc1ccc(NC=O)c(C(=O)CCNC(C)=O)c1
active: all assays above
